Reference: patent US20090220435A1, “TIGHT JUNCTION MODULATING PEPTIDE COMPONENTS FOR ENHANCING MUCOSAL DELIVERY OF THERAPEUTIC AGENTS” (priority 2005, published 2009)

Key:
[1] = test system: in vitro epithelial tissue model (EpiAirway™); experiment: Drug permeation (Papp) in the in vitro epithelial tissue model
Source text: A. A “kit” of 24 EpiAirway™ units can routinely be employed for evaluating five different formulations, each of which is applied to quadruplicate wells. Each well is employed for determination of permeation kinetics (4 time points), transepithelial electrical resistance (TER). An additional set of wells is employed as controls, which are sham treated during determination of permeation kinetics, but are otherwise handled identically to the test sample-containing units for determinations of transepithelial resistance and viability.
B. In all experiments, the mucosal delivery formulation to be studied is applied to the apical surface of each unit in a volume of 100 μL, which is sufficient to cover the entire apical surface. An appropriate volume of the test formulation at the concentration applied to the apical surface (no more than 100 μL is generally needed) is set aside for subsequent determination of concentration of the active material by ELISA or other designated assay.
D. In order to minimize potential sources of error and avoid any formation of concentration gradients, the units are transferred from one 0.9 mL-containing well to another at each time point in the study. These transfers are made at the following time points, based on a zero time at which the 100 μL volume of test material was applied to the apical surface: 15 minutes, 30 minutes, 60 minutes, and 120 minutes.
F. At the completion of each time point, the medium is removed from the well from which each unit was transferred, and aliquotted into two tubes (one tube receives 700 μL and the other 200 μL) for determination of the concentration of permeated test material and, in the event that the test material is cytotoxic, for release of the cytosolic enzyme, lactate dehydrogenase, from the epithelium. These samples are kept in the refrigerator if the assays are to be conducted within 24 hours, or the samples are subaliquotted and kept frozen at −80° C. until thawed once for assays. Repeated freeze-thaw cycles are to be avoided.
EIA kit (p/n S-1178(EIAH6101) was purchased from Peninsula Laboratories Inc. (Division of BACHEM, San Carlos, Calif., 800-922-1516). 17×120 mm polypropylene conical tubes (p/n 352097, Falcon, Franklin Lakes, N.J.) were used for all sample preparations. Eight standards were used for PTH quantitation. The rest of the assay procedure was the same as the kit inserts.
The instant study was designed to evaluate the effect of PN159 itself or in combination with additional permeation enhancers on PTH permeation. The PN159 concentrations evaluated are 25, 50, and 100 μM. The additional permeation enhancers are 45 mg/ml M-β-CD, 1 mg/ml DDPC, and 1 mg/ml EDTA. Sorbitol was used as a tonicifier (146-190 mM) to adjust the osmolarity of formulations to 220 mOsm/kg. The formulation pH was fixed at 4.5. PTH was chosen as a model peptide in this example. 2 mg/ml PTH was combined with PN159 with or without additional permeation enhancers. The combination was tested using an in vitro epithelial tissue model to monitor PTH permeation, transepithelial electrical resistance (TER), and the cytotoxicity of the formulation by LDH assay.
The concentrations of MC-4RA in the basolateral media was analyzed by the RP-HPLC using a C18 RP chromatography with a flow rate of 1 mL/minute and a column temperature of 25° C. • Solvent A: 0.1% TFA in water; Solvent B: 0.1% TFA in ACN • Injection Volume: 50 μL • Detection: 220 nm • RUN TIME: 15 MIN
Galantamine concentration in the formulation and in the basolateral media (permeation samples) was determined using an isocratic LC (Waters Alliance) method with UV detection. • Column: Waters Symmetry Shield, C18, 5 um, 25×0.46 cm • Mobile phase: 5% ACN in 50 mM ammonium formate, pH 3.0 • Flow rate: 1 ml/min • Column temperature: 30° C. • Calibration curve: 0-400 μg/ml Galantamine HBr • Detection: UV at 285 nm

[2] = test system: EpiAirway™ human-derived tracheal/bronchial epithelial cells; experiment: Transepithelial electrical resistance (TER) across EpiAirway epithelial cell layer; format: cell-based
[3] = test system: EpiAirway™ human-derived tracheal/bronchial epithelial cells; experiment: FITC-dextran / sample permeation across epithelial cell monolayer; format: cell-based
Protocol: A FITC labeled dextran with a molecular weight 3000 (FD3) was used to assess the efficacy of individual TJMP on epithelial cell monolayer permeation. The tissue insert plates were transferred to a 96-well receiver plate containing 200 μl of DPBS++ as basal media. The apical surface of each tissue culture insert was incubated with a 20 μl sample of a single test formulation (refer to Table 24 of Example 25 for details of test formulations) for one hour at 37° C. in the dark on a shaker (˜100 rpm). Following the 1-hour incubation period, underlying basal media samples were taken from each tissue culture insert and temporarily stored in the dark at room temperature until FD3 levels were quantified by fluorescence spectroscopy. For FD3 measurements, a 150 μl of basal media sample was transferred to a black, clear bottom 96-well plate. Fluorescence emission at 528/20 following excitation at 485/20 were measured using a FL×800 fluorescence plate reader from Biotek Instruments.
Each tissue insert will be placed in an individual well containing 1 ml of MatTek basal media. On the apical surface of the inserts, 25 μl of test formulation will be applied according to study design, and the samples will be placed on a shaker (˜100 rpm) for 1.5 h at 37° C. FITC-labeled dextran solution is added to inserts apically and a fluorescence measurement is made from the basolateral media after the incubation period. The concentration of FITC-dextran is expressed as a percent of the starting material applied to the cells. A FITC labeled dextran with a molecular weight 4000 (MW4000) was used to assess cargo size limitations on individual TJMP permeation. Of note, various size FITC-labeled dextrans are available to perform size limitation studies.
Fluorescein isothiocyanate (FITC) labeled Dextrin (MW 3,000) was added to the treatment mixture at 0.1-1 mg/ml. The treatment mixture was added to the side of the apical wall, and the plates were incubated at 37° C. in an orbital shaker (New Brunswick Scientific, Edison, N.J.) for the designated time at 100 rpm. At the end of incubation, triplicates of 200 ul of the basal medium were transferred to a dark-wall fluorescent reading plate. Fluorescent intensity at wavelength 470 nm was measured by a microplate fluorescence reader FLx800 (BIO-TEK INSTRUMENTS, INC, Winooski, Vt.). Serial dilutions of standard were used to obtain a standard curve and calculate the concentration. Permeability was measured in two ways, as the ratio of donor mass (the apical chamber) or as the ratio of acceptor mass (the basal chamber), expressed in percentage.

[4] = test system: EpiAirway™ human-derived tracheal/bronchial epithelial cells; experiment: Cytotoxicity (LDH assay); format: cell-based
Protocol: The amount of cell death was assayed by measuring the loss of lactate dehydrogenase (LDH) from the cells using a CytoTox 96 Cytoxicity Assay Kit (Promega Corp., Madison, Wis.). Fifty microliters of sample was loaded into a 96-well assay plates. Fresh, cell-free culture medium was used as a blank. 50 μl of substrate solution was added to each well and the plates incubated for 30 minutes at room temperature in the dark. Following incubation, 50 μl of stop solution was added to each well and the plates read on an optical density plate reader at 490 nm.
The amount of cell death will be assayed by measuring the loss of lactate dehydrogenase (LDH) from the cells using a CytoTox 96 Cytotoxicity Assay Kit (Promega Corp., Madison, Wis.). Fifty microliters of sample will be loaded into a 96-well assay plates. Fresh, cell-free culture medium will be used as a blank. Fifty microliters of substrate solution will be added to each well and the plates incubated for 30 minutes at room temperature in the dark. Following incubation, 50 μl of stop solution will be added to each well and the plates read on an optical density plate reader at 490 nm. The measurement of LDH release into the basolateral media indicates relative cytotoxicity of the samples. One hundred percent lysis of control inserts with 0.3% Octylphenolpoly(ethyleneglycolether)×(TritonX-100) allows LDH values to be expressed as percentage of total lysis.
In some embodiments, The amount of cell death was assayed by measuring the release of lactate dehydrogenase (LDH) from the cells into the apical medium using a CytoTox 96 Cytotoxicity Assay Kit (Promega Corp., Madison, Wis.). One percent Octylphenolpoly (ethyleneglycolether)×(Triton X-100™) diluted in phosphate buffered saline (PBS) causes 100% lysis in cultured cells and served herein as a positive control for the LDH assay. Following the one hour incubation period with a test formulation (refer to Table 24 of Example 25 for details of test formulations), the total liquid volume of each insert was brought to a final volume of 200 μl with culture medium. The apical medium was then mixed by pipetting four times with a multichannel pipette set to a 100 μl volume. After mixing, a 100 μl sample from the apical side of each insert was transferred to a new 96-well plate. The apical media samples were sealed with a plate sealer and stored at room temperature for same day analysis or stored overnight at 4° C. for analysis the next day. To measure LDH levels, 5 μl of the 100 μl apical media sample was diluted in 45 μl DPBS in a new 96-well plate. Fresh, cell-free culture medium will be used as a blank. Fifty microliters of substrate solution was added to each well and incubated for 30 minutes at room temperature away from direct light. Following the 30 minute incubation, 50 μl of stop solution was added to each well. Optical density (OD) was measured at 490 nm with a uQuant absorbance plate reader from Biotek Instruments. The measurement of LDH release into the apical media indicates relative cytotoxicity of the samples. Percent cytotoxicity for each test formulation was calculated by subtracting the measured absorbance of the PBS control (basal level of LDH release) from the measured absorbance of the individual test formulation and then dividing that value by the measured absorbance for the 1% Triton X-100™ positive control, multiplied by 100.
An LDH assay was used to assess the cytotoxicity of the treatments. The LDH level was determined by CytoTox96 Non-Radioactive Cytotoxic Assay (Promega, Madison, Wis.) following the manufacturer's protocol. For basal-lateral LDH levels, triplicates of 50 ul of the basal medium were used to determine the LDH level. For apical LDH level, 150 ul of the diluted apical sample was removed by adding 150 ul of Epi-CM to the apical chamber, the medium was mixed by pipeting up and down, and 150 ul medium was removed and diluted 2× (for a final 8-fold dilution) for assay in triplicates of 50 ul.

[5] = 1000 μM, additional assay (in parenthesis)
[6] = 15 minute treatment at the peptide's optimal concentration
[7] = 60 minute treatment at the peptide's optimal concentration

Compound: CC(C)C[C@H](NC(=O)[C@H](CCCCN)NC(=O)CNC(=O)[C@H](CC(C)C)NC(=O)[C@@H](NC(=O)[C@@H]1CSSC[C@H](N)C(=O)N[C@@H](CO)C(=O)N[C@@H](CC(N)=O)C(=O)N[C@@H](CC(C)C)C(=O)N[C@@H](CO)C(=O)N[C@@H]([C@@H](C)O)C(=O)N1)C(C)C)C(=O)N[C@@H](CO)C(=O)N[C@@H](CCC(N)=O)C(=O)N[C@@H](CCC(=O)O)C(=O)N[C@@H](CC(C)C)C(=O)N[C@@H](Cc1c[nH]cn1)C(=O)N[C@@H](CCCCN)C(=O)N[C@@H](CC(C)C)C(=O)N[C@@H](CCC(N)=O)C(=O)N[C@H](C(=O)N[C@@H](Cc1ccc(O)cc1)C(=O)N1CCC[C@H]1C(=O)N[C@@H](CCCNC(=N)N)C(=O)N[C@H](C(=O)N[C@@H](CC(N)=O)C(=O)N[C@H](C(=O)NCC(=O)N[C@@H](CO)C(=O)NCC(=O)N[C@H](C(=O)N1CCC[C@H]1C(N)=O)[C@@H](C)O)[C@@H](C)O)[C@@H](C)O)[C@@H](C)O [Calcitonin, salmon calcitonin]
- fold increase in Papp in the presence of PN159 [1]: 23-47 fold
- Papp ([1]; [PN159] 0 μM, galantamine 40 mg/mL pH 5.0, calcitonin 1 mg/mL pH 3.5, PTH1-34 1 mg/mL pH 4.5, PYY3-36 1 mg/mL pH 5.0): 0.097 ×10⁻⁶ cm/s
- Papp ([1]; [PN159] 0 μM, galantamine 40 mg/mL pH 5.0, calcitonin 1 mg/mL pH 3.5, PTH1-34 1 mg/mL pH 4.5, PYY3-36 1 mg/mL pH 5.0, listed as calcitonin): about 1×10^−7 cm/s
- Papp ([1]; [PN159] 25 μM, galantamine 40 mg/mL pH 5.0, calcitonin 1 mg/mL pH 3.5, PTH1-34 1 mg/mL pH 4.5, PYY3-36 1 mg/mL pH 7.0): 2.2 ×10⁻⁶ cm/s
- Papp ([1]; [PN159] 50 μM, galantamine 40 mg/mL pH 5.0, calcitonin 1 mg/mL pH 3.5, PTH1-34 1 mg/mL pH 4.5): 3.3 ×10⁻⁶ cm/s

Compound: CNGRCGGKKKLKLLLKLL [PN679]
- % T0 TER ([2]; 25 μM, 1 h, pH 7): 70%
- % T0 TER ([2]; 100 μM, 1 h, pH 7): 7%
- % T0 TER ([2]; 250 μM, 1 h, pH 7): 2%
- % T0 TER ([2]; 500 μM, 1 h, pH 7): −2%
- % T0 TER ([2]; 1000 μM, 1 h, pH 7): −2% (−2%)
- % T0 TER [2, 5]: −2% (−2%)
- % FD3 Permeation ([3]; 25 μM, 1 h, FITC dextran MW 3000): 0%
- % FD3 Permeation ([3]; 100 μM, 1 h, FITC dextran MW 3000): 7%
- % FD3 Permeation ([3]; 250 μM, 1 h, FITC dextran MW 3000): 8%
- % FD3 Permeation ([3]; 500 μM, 1 h, FITC dextran MW 3000): 10%
- % FD3 Permeation ([3]; 1000 μM, 1 h, FITC dextran MW 3000): 10% (10%)
- % FD3 Permeation [3, 5]: 10% (10%)
- optimal dose ([3]; based on TER reduction, sample permeation and LDH release): 100 µM

Compound: Maleimide-GLGSLLKKAGKLKLKQPKSKRKV-amide [PN283]
- TER reduction ([2]; 100 μM peptide): 39%
- TER reduction ([2]; 500 μM peptide): 86%
- TER reduction ([2]; 1000 μM peptide): 92%
- percent permeation ([3]; 100 μM peptide): 0.7%
- percent permeation ([3]; 500 μM peptide): 3.9%
- percent permeation ([3]; 1000 μM peptide): 5.2%
- % Perm 15 [3, 6]: 1.06%
- % Perm 60 [3, 7]: 4.99%
- permeation of FITC-dextran MW4000 ([3]; 60 minutes of incubation, peptide at optimal concentration): approximately 5%
- Optimal Concentration ([3]; greatest TER reduction with highest permeability and no significant cytotoxicity): 1000 µM
- LDH15 [4, 6]: 0.0007
- LDH60 [4, 7]: 0.032
